Counter-ions that a name gives are not always drawn.
Columns and labels:
[1] = test system: kinases other than AKT1; assay: SelectScreen kinase panel (Invitrogen); assay type: biochemical; conditions: number of kinases other than AKT1 with >=80% at 10 uM
Experimental: (§1) SelectScreen® data was determined at Invitrogen. Plasma protein binding and pharmacokinetic analyses were determined using standard protocols.

[2] = Plasma protein binding (fraction unbound, human plasma); assay type: in vitro ADME
Experimental: as §1

[3] = Pharmacokinetic analysis, half-life in rat; assay type: in vivo; conditions: for half-life: rat, in vivo, read-out: T½ (rat) h
Experimental: as §1

[4] = molecular target: T1, AKT3 (Homo sapiens, UniProt Q9Y243); assay: AKT Kinase Assay (IMAP fluorescent polarisation), AKT3 isoform; assay type: biochemical; conditions: for IC50: activated AKT3, FAM Crosstide substrate; for potency against AKT3 compared with the comparator compound: compared with the non-hydroxylated Compound A, F or L
T1 construct: purchased SignalChem
T1 sequence (Q9Y243 whole entry, canonical isoform): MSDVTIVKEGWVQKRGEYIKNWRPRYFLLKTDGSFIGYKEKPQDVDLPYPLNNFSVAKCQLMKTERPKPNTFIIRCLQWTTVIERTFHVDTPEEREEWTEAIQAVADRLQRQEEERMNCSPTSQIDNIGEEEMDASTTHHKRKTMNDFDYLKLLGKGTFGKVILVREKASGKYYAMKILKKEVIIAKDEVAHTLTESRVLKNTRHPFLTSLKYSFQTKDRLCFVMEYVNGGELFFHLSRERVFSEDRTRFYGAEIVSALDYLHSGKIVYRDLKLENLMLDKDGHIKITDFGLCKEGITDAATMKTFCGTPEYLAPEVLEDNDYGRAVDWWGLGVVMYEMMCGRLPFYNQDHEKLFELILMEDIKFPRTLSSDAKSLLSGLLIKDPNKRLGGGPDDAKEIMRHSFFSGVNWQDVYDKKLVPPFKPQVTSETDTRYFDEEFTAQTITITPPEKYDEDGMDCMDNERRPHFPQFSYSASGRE
Experimental: (§2) Testing of the compounds was performed using an AKT Kinase Assay:
(§3) Activated AKT isoforms 1, 2 and 3 were assayed utilising a 5′ FAM Crosstide (Seq. GRPRTSSFAEG-OH). The extent of kinase phosphorylation was determined by fluorescent polarisation using IMAP progressive binding reagent, which introduces binding beads which allow the reagent to specifically bind to phosphate residues via covalent co-ordination complex bonds.
(§4) iMAP binding solution stops Crosstide/kinase interaction and specifically binds phosphorylated substrates. The degree of phosphorylation is determined by fluorescent polarisation (excitation 485 nm; emission 528 nm) or the reduction in speed of rotation of the excited substrate.
(§5) The following materials were used in the assay: • a) Activated AKT isoforms (SignalChem.) dissolved in Complete Reaction buffer at a predetermined concentration selected so that the assay was carried out in the linear range. • b) AKT substrate peptide: FAM Crosstide (R7110) Molecular Devices, diluted in complete reaction buffer. • c) iMAP Progressive Screening Express Kit (R8127) Molecular Devices • d) Complete Reaction Buffer containing 0.1% BSA, 10 mM Tris-HCl, 10 mM MgCl2, 0.05% NaN3 and 0.01% phosphate free BSA, 1 mM DTT • e) Progressive Binding Solution containing 75% Buffer A, 25% Buffer B and low volume Binding Reagent which contains the binding entity for the assay • f) ATP diluted in complete reaction buffer • g) Black polystyrene 384 well assay plates (Nunc). • h) Biotek Synergy 4 Hybrid Plate reader.
(§6) 5 μl of test compound was dissolved in DMSO (Sigma Aldrich) and serially diluted in complete reaction buffer to give a fourteen point half log dose response and plated into 384 well black plates. The compound was incubated at room temperature with activated AKT isoform (5 μl) at the predetermined concentration, for 45 min.
(§7) 2.5 μl of ATP solution mixed with 2.5 μl of AKT substrate peptide (FAM Crosstide (R7110) Molecular Devices) were dispensed into each well and the plate centrifuged at 1000 rpm for 20 seconds to ensure homogenous mixing of reagents. The reaction mix was incubated in the dark for 1 h at room temperature.
(§8) The kinase reaction was stopped by the addition of Progressive Binding Solution and the mixture allowed to equilibrate for 1 h in the dark, at room temperature.
(§9) The fluorescent polarisation generated in each well was determined using a […] Synergy 4 Hybrid plate reader. In brief, each reaction solution was excited at 485 nm with the emission measured at 528 nm in both the parallel and perpendicular pathway.
(§10) The polarisation value generated in each well was calculated by Gen5 software (Biotek) and the % inhibition of kinase activity compared to vehicle control was calculated via GraphPad Prism. IC50 values for each compound were calculated by non-linear regression analysis using Prism software.
(§11) All plates were internally controlled by two methods. Firstly, by calculating the signal:noise ratio; based on kinase polarisation without inhibitor and polarisation generated by complete reaction buffer in the absence of activated kinase. Secondly by determining IC50 values generated by known inhibitors of the AKT isoforms.
(§12) The data was analysed using GraphPad Prism, with IC50 values generated using non-linear regression of the data set.

[5] = test system: pAKT (Ser473) in PC3 cells; assay: Inhibition of pAKT in PC3 cells; assay type: cell-based; conditions: Homo sapiens, PC-3, 24 h incubation, read-out: inhibition of pAKT in PC3 cell lines, IC50
Experimental: Analysis of Compound Effects on AKT Signalling Pathways: Inhibition of pAKT in PC3 Cells
PC3 cells were seeded overnight in 96 well plates followed by serum starvation for 4 h. Increasing concentrations of AKT inhibitor, in complete medium (RPMI 1640), were added to the cells and incubated for a further 24 h.
The cells were fixed in paraformaldehyde, permeabilised and blocked in BSA, followed by incubation with pAKT (Ser473) and total AKT antibody overnight (R&D Systems). Secondary antibody mixture was added, followed by a combination of fluorescent substrates added for a final incubation.
Fluorescent intensities for each antibody were read at 540/600 nm and 360/450 nm respectively on a Synergy 4 plate reader. The percentage change in fluorescent intensity was plotted against log concentration of inhibitor; to generate IC50 values (GraphPad Prism).

[6] = molecular target: T2, AKT2 (Homo sapiens, UniProt P31751); assay: AKT Kinase Assay (IMAP fluorescent polarisation), AKT2 isoform; assay type: biochemical; conditions: for IC50: activated AKT2, FAM Crosstide substrate; for potency against AKT2 compared with the comparator compound: compared with the non-hydroxylated Compound A, F or L
T2 construct: purchased SignalChem
T2 sequence (P31751 whole entry, canonical isoform): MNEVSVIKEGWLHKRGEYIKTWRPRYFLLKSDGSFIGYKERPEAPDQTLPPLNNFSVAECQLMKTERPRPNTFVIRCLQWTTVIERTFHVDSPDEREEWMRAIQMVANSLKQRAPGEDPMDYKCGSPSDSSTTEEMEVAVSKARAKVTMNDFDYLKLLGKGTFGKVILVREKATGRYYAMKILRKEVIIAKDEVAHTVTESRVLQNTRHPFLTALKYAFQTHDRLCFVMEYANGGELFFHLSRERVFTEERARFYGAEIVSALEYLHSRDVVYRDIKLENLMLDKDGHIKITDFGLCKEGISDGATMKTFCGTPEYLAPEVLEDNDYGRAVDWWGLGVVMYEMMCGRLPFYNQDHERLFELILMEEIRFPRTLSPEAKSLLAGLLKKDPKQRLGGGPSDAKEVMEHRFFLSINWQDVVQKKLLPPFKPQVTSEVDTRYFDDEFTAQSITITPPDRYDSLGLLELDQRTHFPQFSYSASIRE
Experimental: as §2, §3, §4, §5, §6, §7, §8, §9, §10, §11, §12

[7] = molecular target: T3, AKT1 (Homo sapiens, UniProt P31749); assay: AKT Kinase Assay (IMAP fluorescent polarisation), AKT1 isoform; assay type: biochemical; conditions: for IC50: activated AKT1, FAM Crosstide substrate; for potency against AKT1 compared with the comparator compound: compared with the non-hydroxylated Compound A, F or L
T3 construct: purchased SignalChem
T3 sequence (P31749 whole entry, canonical isoform): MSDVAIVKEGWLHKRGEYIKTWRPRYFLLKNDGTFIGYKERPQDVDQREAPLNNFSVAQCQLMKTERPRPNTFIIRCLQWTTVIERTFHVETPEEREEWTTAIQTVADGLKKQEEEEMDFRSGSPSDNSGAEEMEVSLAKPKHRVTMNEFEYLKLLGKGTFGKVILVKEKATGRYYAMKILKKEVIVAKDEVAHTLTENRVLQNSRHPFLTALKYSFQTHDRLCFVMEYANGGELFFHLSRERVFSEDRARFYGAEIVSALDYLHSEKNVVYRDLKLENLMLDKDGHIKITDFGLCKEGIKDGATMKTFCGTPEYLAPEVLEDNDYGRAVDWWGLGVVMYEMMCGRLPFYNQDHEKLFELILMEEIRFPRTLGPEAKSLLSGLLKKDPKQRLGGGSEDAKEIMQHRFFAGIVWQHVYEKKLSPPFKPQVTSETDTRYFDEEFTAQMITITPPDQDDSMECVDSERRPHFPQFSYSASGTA
Experimental: as §2, §3, §4, §5, §6, §7, §8, §9, §10, §11, §12

| SMILES | >=80% in Selectscreen (at 10 uM) other than AKT1 [1] | fraction unbound [2] | unbound fraction (human plasma) compared with Compound A [2] | half-life [3] [h] | T1/2 in rodent compared with Compound A [3] | IC50 [4] [nM] | potency against AKT3 compared with the comparator compound [4] | IC50 [5] [nM] | IC50 [6] [nM] | potency against AKT2 compared with the comparator compound [6] | IC50 [7] [nM] | potency against AKT1 compared with the comparator compound [7] |
| --- | --- | --- | --- | --- | --- | --- | --- | --- | --- | --- | --- | --- |
| C[C@]1(O)C[C@@](N)(c2ccc(-c3sc4ncn(CC(F)(F)F)c(=O)c4c3-c3ccccc3)cc2)C1 [Compound 5, 6-(4-((1r,3r)-1-Amino-3-hydroxy-3-methylcyclobutyl)phenyl)-5-phenyl-3-(2,2,2-trifluoroethyl)thieno[2,3-d]pyrimidin-4(3H)-one.TFA] | ** (1-2 kinases) | 0.02 to 0.05 | significantly higher unbound fraction | ≤ 10 | shorter T1/2 | 1000 to 6000 | improved potency | ≤ 500 | 20 to 100 | improved potency | ≤ 300 | improved potency |
| Cn1c(-c2ccc([C@]3(N)C[C@](C)(O)C3)cc2)c(-c2ccccc2)c2c(=O)n(CC(F)(F)F)cnc21 [Compound 6, 6-(4-((1r,3r)-1-Amino-3-hydroxy-3-methylcyclobutyl)phenyl)-7-methyl-5-phenyl-3-(2,2,2-trifluoroethyl)-3H-pyrrolo[2,3-d]pyrimidin-4(7H)-one.HCl] | *** (0 kinases) | 0.02 to 0.05 | significantly higher unbound fraction | ≤ 10 | shorter T1/2 | 1000 to 6000 | improved potency | ≤ 500 | ≤ 20 | improved potency | ≤ 300 | improved potency |

Source: patent US9156853B2, “AKT inhibitor compounds for treatment of cancer” (ALMAC DISCOVERY LIMITED, priority 2012, dated 2015)
